Experimental data taken from US9828333B2, “Compounds for the treatment of influenza” (CHRISTIAN-ALBRECHTS-UNIVERSITAT ZU KIEL, priority 2011, dated 2017).

Key:
[1] = test system: influenza A virus A/342/2009 (H1N1; oseltamivir-resistant); format: cell-based
[2] = molecular target: neuraminidase of influenza A virus A/342/2009 (H1N1, oseltamivir resistant) (UniProt P03468); format: biochemical

CCOC(=O)C1=C[C@@H](OC(CC)CC)[C@H](NC(C)=O)[C@@H](N)C1 [Oseltamivir, (3R,4R,5S)-4-acetamido-5-amino-3-(1-ethylpropoxy)cyclohex-1-en-1-carboxylic acid ethyl ester, reference compound]
90% inhibitory concentration, A/342/2009 [1]: resistant

CCC(CC)O[C@@H]1C=C(C(=O)O)C[C@H](NC(C)=N)[C@H]1NC(C)=O [Compound 3]
90% inhibitory concentration, A/342/2009 [1]: 16.0 (22.3) μM | 95% inhibitory concentration (values in parentheses), A/342/2009 [1]: 16.0 (22.3) μM | 50% inhibitory concentration higher compared to zanamivir [2]: 50 fold

CCC(CC)O[C@@H]1C=C(C(=O)O)C[C@H](NC(=N)N)[C@H]1NC(C)=O [Compound 9, (3R,4R,5S)-4-acetamido-5-(N-guanidino)-3-(1-ethylpropoxy)cyclohex-1-en-1-carboxylic acid]
90% inhibitory concentration, A/342/2009 [1]: 3.0 (14.2) μM | 95% inhibitory concentration (values in parentheses), A/342/2009 [1]: 3.0 (14.2) μM
